Reference: patent publication US20190308994A1, “Topical Pharmaceutical Formulations For Treating Inflammatory-Related Conditions” (Anacor Pharmaceuticals, Inc., priority 2015, published 2019)
In brackets after ≈: the same amount, converted by molar mass. Like-named read-outs stand apart in the source and are kept apart here.

Columns and labels:
[1] = Equilibrium solubility of crisaborole in solvents by HPLC; type: physicochemical; conditions: thermodynamic from solid, read-out: Solubity by HPLC
Procedure: (§1) One of the key aspects encountered in reformulating crisaborole was that the active agent be fully dissolved within its solvent. A selection criterion of greater than 10% w/w crisaborole solubility was used to select solvents capable of carrying at least 1% crisaborole in a final drug product formulation, assuming the drug product contained 10% solvent. The solubility of crisaborole in ten solvents was evaluated to identify those with crisaborole solubility greater than 10% w/w by visual assessment. The equilibrium solubility of the best solvents was subsequently verified by HPLC.

[2] = Solubility of crisaborole in solvents by visual assessment; type: physicochemical
Procedure: as §1

Work on `N#Cc1ccc(Oc2ccc3c(c2)COB3O)cc1` [Crisaborole Form II, 5-(4-cyanophenoxy)-1,3-dihydro-1-hydroxy-2,1-benzoxaborole] yielded a solubility ([1]; oil or lipid, in Ethylhexyl Hydroxystearate) of 21 mg/mL (≈ 83.6 mM), a solubility ([1]; oil or lipid, in Oleyl Alcohol, NF) of 33 mg/mL (≈ 131 mM) and a solubility ([1]; organic solvent or mixture, in Hexylene Glycol, NF) of 356 mg/mL (≈ 1420 mM). The solubility ([1]; organic solvent or mixture, in Polyethylene Glycol (PEG) 400, USP) was 164 mg/mL (≈ 653 mM), the solubility ([1]; organic solvent or mixture, in Propylene Carbonate, NF) was 96 mg/mL (≈ 382 mM) and the solubility ([1]; organic solvent or mixture, in Propylene Glycol, USP) was 274 mg/mL (≈ 1090 mM). The solubility ([1]; organic solvent or mixture, in Transcutol P, NF) was 21.2 mg/mL (≈ 84.4 mM), the “Visual Solubity” value ([2]; in Diisopropyl Adipate) was 7.7% w/w and the “Visual Solubity” value ([2]; in Ethylhexyl Hydroxystearate) was 1.6% w/w. The “Visual Solubity” value ([2]; in Hexylene Glycol, NF) was 25.9% w/w, the “Visual Solubity” value ([2]; in Isopropyl Myristate, NF) was 0.6% w/w and the “Visual Solubity” value ([2]; in Oleic Acid, NF) was <0.1% w/w. The “Visual Solubity” value ([2]; in Oleyl Alcohol, NF) was 2.3% w/w, the “Visual Solubity” value ([2]; in Polyethylene Glycol (PEG) 400, USP) was 15.0% w/w and the “Visual Solubity” value ([2]; in Propylene Carbonate, NF) was 9.9% w/w. For the same molecule, the “Visual Solubity” value ([2]; in Propylene Glycol, USP) was 24.0% w/w and the “Visual Solubity” value ([2]; in Transcutol P, NF) was 28.6% w/w.
